These are literature values, as cited in patent EP0225409A1, “Organic amine phosphonic acid complexes for the treatment of calcific tumors” (THE DOW CHEMICAL COMPANY, priority 1985, dated 1987).

The conditions of this data set: 24 hours after injection.

For `NC(c1ccc(O)c([131I])c1)(P(=O)(O)O)P(=O)(O)O` [α-amino-(3-iodo-4-hydroxybenzylidene)diphosphonate], the “injected dose present in the thyroid” value is 0.1%.
